According to PMC5095062, “The novel choline kinase inhibitor ICL-CCIC-0019 reprograms cellular metabolism and inhibits cancer cell growth” (Oncotarget, 2016):

Experiments:
Assay in all cases: Kinase selectivity screen
Type in all cases: biochemical
TBK1 = TBK1 (Homo sapiens, UniProt Q9UHD2); conditions: TBK1, 10 μM
Procedure: (§1) The substantially less demanding synthesis of ICL-CCIC-0019 compared with MN58B bears additional advantages. […] This consequently diminished intracellular PCho concentration, and importantly, the incorporation of [^3H]-choline into lipids (Figure 1D). […] To assess kinase specificity, ICL-CCIC-0019 was tested against a panel of 131 human kinases (Figure 1E and Supplementary Table S1). […] Inhibition greater than 20% was attained for insulin-like growth factor 1 (IGF-1R, 35 ± 7% inhibition), mitogen-activated protein kinase-activated protein kinase 3 (MAPKAP-K3, 33 ± 6%), extracellular signal regulated kinase 8 (ERK8, 31 ± 4%), ribosomal S6 kinase 1 (RSK1, 22 ± 6%), and v-erb-a erythroblastic leukemia viral oncogene homolog 4 (HER4, 21 ± 7%).

MSK1 = MSK1 (Homo sapiens, UniProt O75582); conditions: MSK1, 10 μM
Procedure: as §1

Aurora B = Aurora B (Homo sapiens, UniProt Q96GD4)
Procedure: as §1

EPH-A2 = EPH-A2 (Homo sapiens, UniProt P29317); conditions: EPH-A2, 10 μM
Procedure: as §1

p38a MAPK = p38a MAPK (Homo sapiens, UniProt Q16539)
Procedure: as §1

PRK2 = PRK2 (Homo sapiens, UniProt Q16513); conditions: PRK2, 10 μM
Procedure: as §1

NEK6 = NEK6 (Homo sapiens, UniProt Q9HC98); conditions: NEK6, 10 μM
Procedure: as §1

MST2 = MST2 (Homo sapiens, UniProt Q13188); conditions: MST2, 10 μM
Chain of MST2 (Q13188 whole entry): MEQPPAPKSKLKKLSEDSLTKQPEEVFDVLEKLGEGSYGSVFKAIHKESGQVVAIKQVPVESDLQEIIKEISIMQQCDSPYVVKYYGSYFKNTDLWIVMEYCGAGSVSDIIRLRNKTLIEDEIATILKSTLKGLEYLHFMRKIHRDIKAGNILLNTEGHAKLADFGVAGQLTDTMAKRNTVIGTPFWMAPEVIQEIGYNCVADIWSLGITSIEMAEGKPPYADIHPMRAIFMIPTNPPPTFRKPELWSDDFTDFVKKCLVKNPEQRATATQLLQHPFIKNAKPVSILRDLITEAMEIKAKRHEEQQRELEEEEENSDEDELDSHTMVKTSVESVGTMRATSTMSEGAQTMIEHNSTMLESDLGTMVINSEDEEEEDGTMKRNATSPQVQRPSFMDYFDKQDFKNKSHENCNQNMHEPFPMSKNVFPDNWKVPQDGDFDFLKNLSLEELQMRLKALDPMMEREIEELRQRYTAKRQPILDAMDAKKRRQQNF
Procedure: as §1

IRR = IRR (Homo sapiens, UniProt P14616)
Chain of IRR (P14616 27-1297): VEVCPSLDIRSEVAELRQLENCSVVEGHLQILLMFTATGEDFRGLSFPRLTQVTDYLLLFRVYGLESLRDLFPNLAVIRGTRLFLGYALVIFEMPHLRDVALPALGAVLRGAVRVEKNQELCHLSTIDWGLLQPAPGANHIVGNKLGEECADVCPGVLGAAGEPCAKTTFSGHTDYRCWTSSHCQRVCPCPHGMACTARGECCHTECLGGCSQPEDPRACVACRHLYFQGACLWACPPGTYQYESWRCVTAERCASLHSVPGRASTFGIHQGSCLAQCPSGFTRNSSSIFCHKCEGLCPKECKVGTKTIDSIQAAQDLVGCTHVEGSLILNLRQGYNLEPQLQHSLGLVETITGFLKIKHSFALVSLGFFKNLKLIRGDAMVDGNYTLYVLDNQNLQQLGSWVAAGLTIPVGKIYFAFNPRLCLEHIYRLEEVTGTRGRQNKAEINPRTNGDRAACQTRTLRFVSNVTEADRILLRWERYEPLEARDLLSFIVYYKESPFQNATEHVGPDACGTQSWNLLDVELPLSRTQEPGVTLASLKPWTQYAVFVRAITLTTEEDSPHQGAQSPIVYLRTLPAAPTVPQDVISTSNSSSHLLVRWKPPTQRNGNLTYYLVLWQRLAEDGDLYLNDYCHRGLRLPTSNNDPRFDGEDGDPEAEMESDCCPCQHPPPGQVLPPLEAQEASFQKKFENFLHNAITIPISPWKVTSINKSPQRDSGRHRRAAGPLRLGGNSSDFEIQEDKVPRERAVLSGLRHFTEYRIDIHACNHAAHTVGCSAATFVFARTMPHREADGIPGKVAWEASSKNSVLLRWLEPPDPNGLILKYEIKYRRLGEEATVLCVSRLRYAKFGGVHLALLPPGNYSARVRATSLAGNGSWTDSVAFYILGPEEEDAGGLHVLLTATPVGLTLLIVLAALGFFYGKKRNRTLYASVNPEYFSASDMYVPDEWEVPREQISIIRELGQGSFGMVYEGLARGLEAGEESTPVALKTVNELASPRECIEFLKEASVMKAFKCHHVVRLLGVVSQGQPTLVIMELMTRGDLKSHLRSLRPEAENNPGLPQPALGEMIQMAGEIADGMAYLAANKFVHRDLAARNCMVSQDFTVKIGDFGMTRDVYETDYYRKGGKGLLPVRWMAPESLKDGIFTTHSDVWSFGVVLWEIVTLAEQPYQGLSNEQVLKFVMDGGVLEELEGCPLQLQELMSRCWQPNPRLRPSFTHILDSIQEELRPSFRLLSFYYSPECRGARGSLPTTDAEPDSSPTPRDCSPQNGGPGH
Procedure: as §1

ROCK 2 = ROCK 2 (Homo sapiens, UniProt O75116); conditions: ROCK 2, 10 μM
Procedure: as §1

MKK6 = MKK6 (Homo sapiens, UniProt P52564); conditions: MKK6, 10 μM
Procedure: as §1

PHK = PHK (Homo sapiens, UniProt Q16816)
Procedure: as §1

RSK1 = RSK1 (Homo sapiens, UniProt Q15418); conditions: RSK1, 10 μM
Chain of RSK1 (Q15418 whole entry): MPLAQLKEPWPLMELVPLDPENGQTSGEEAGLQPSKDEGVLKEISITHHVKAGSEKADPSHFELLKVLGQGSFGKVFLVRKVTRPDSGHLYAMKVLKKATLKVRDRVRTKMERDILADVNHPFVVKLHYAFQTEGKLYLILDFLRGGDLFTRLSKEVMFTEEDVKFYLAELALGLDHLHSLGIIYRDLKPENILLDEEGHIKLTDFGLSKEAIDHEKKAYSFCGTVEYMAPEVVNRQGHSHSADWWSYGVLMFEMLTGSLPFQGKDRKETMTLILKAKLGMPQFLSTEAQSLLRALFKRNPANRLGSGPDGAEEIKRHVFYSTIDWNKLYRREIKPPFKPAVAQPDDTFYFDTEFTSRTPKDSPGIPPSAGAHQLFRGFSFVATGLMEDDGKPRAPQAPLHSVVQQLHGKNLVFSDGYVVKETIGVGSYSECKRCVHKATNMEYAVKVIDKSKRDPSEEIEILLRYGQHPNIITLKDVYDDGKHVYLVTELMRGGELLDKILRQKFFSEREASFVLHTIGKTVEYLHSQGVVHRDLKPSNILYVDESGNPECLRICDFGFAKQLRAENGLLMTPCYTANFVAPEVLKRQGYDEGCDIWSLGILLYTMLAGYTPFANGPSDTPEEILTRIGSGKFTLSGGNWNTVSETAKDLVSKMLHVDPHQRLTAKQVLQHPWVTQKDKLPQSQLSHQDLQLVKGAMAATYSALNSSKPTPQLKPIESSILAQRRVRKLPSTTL
Procedure: as §1

HER4 = HER4 (Homo sapiens, UniProt Q15303); conditions: HER4, 10 μM
Chain of HER4 (Q15303 26-1308): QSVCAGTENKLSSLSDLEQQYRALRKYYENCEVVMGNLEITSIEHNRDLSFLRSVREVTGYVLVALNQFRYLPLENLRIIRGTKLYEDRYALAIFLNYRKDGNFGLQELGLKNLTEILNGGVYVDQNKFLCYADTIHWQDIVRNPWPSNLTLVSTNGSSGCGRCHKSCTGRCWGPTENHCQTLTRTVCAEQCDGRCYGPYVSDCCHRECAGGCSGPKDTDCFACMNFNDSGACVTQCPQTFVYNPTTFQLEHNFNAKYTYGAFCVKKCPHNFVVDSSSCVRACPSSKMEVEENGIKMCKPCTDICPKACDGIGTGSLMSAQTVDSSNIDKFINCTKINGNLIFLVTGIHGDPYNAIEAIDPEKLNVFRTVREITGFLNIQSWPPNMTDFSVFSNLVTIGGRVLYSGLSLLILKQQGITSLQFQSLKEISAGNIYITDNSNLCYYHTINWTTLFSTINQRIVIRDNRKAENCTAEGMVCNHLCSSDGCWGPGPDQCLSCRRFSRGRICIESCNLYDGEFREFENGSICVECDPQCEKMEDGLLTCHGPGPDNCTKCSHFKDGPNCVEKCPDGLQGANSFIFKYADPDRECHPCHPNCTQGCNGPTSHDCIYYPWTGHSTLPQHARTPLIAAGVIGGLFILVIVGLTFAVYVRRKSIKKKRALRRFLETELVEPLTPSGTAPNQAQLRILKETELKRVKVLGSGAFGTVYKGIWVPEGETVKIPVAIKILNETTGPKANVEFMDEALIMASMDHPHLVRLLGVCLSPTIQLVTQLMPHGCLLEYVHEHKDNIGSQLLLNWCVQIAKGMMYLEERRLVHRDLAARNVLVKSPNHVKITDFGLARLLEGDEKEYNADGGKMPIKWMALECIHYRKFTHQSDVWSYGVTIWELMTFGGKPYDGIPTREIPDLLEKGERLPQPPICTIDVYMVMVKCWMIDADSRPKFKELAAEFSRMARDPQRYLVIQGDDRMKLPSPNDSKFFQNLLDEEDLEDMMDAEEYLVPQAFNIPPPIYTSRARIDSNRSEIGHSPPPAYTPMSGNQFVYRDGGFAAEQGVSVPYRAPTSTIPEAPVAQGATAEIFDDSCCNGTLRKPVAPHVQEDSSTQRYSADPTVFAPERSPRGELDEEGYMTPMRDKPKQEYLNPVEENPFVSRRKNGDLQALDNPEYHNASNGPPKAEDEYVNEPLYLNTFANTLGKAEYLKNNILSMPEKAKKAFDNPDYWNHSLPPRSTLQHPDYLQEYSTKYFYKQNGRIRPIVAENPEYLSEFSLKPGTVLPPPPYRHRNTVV
Procedure: as §1

MAPKAP-K2 = MAPKAP-K2 (Homo sapiens, UniProt P49137); conditions: MAPKAP-K2, 10 μM
Procedure: as §1

TIE2 = TIE2 (Homo sapiens, UniProt Q02763); conditions: TIE2, 10 μM
Procedure: as §1

TTBK1 = TTBK1 (Homo sapiens, UniProt Q5TCY1); conditions: TTBK1, 10 μM
Procedure: as §1

ERK8 = ERK8 (Homo sapiens, UniProt Q8TD08); conditions: ERK8, 10 μM
Chain of ERK8 (Q8TD08 whole entry): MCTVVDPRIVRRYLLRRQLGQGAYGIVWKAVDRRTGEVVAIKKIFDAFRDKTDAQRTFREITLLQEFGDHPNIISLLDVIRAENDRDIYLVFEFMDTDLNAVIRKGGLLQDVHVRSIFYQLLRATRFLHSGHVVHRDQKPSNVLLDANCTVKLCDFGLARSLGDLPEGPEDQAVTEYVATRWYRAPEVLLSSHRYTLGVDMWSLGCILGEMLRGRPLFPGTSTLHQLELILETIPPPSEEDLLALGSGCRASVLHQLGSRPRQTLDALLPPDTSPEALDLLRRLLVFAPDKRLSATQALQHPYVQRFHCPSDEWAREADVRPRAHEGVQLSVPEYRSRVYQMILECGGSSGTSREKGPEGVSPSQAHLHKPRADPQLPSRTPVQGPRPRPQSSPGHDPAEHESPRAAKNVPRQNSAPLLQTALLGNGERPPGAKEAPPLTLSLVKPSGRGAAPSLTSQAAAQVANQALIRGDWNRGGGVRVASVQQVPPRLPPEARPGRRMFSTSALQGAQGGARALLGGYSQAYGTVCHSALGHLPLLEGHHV
Procedure: as §1

FGF-R1 = FGF-R1 (Homo sapiens, UniProt P11362); conditions: FGF-R1, 10 μM
Procedure: as §1

MKK2 = MKK2 (Homo sapiens, UniProt P36507); conditions: MKK2, 10 μM
Procedure: as §1

DYRK3 = DYRK3 (Homo sapiens, UniProt O43781); conditions: DYRK3, 10 μM
Procedure: as §1

IRAK1 = IRAK1 (Homo sapiens, UniProt P51617); conditions: IRAK1, 10 μM
Procedure: as §1

CLK2 = CLK2 (Homo sapiens, UniProt P49760); conditions: CLK2, 10 μM
Procedure: as §1

CHK1 = CHK1 (Homo sapiens, UniProt O14757); conditions: CHK1, 10 μM
Procedure: as §1

MPSK1 = MPSK1 (Homo sapiens, UniProt O75716); conditions: MPSK1, 10 μM
Procedure: as §1

BRSK2 = BRSK2 (Homo sapiens, UniProt Q8IWQ3); conditions: BRSK2, 10 μM
Procedure: as §1

TrkA = TrkA (Homo sapiens, UniProt P04629)
Chain of TrkA (P04629 33-796): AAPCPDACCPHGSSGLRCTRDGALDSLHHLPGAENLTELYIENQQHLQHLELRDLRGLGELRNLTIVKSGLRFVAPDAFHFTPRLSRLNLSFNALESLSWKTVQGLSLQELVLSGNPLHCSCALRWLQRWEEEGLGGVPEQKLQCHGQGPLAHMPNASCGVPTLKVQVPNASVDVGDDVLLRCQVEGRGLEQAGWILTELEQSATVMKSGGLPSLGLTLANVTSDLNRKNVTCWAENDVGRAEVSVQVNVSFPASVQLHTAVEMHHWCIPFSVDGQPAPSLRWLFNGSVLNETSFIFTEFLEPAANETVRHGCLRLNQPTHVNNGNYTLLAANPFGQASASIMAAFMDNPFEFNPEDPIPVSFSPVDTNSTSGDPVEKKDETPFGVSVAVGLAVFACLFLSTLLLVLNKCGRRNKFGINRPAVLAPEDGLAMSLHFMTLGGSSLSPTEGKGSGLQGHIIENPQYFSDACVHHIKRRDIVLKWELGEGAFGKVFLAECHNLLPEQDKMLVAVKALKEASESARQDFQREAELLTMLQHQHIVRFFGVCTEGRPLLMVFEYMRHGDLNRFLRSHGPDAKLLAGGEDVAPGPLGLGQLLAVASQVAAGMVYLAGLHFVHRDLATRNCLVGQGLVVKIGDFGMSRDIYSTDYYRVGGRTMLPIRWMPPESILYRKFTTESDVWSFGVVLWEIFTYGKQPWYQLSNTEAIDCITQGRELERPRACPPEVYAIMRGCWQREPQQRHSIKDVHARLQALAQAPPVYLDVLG
Procedure: as §1

JNK1 = JNK1 (Homo sapiens, UniProt P45983); conditions: JNK1, 10 μM
Procedure: as §1

SYK = SYK (Homo sapiens, UniProt P43405)
Procedure: as §1

JNK2 = JNK2 (Homo sapiens, UniProt P45984); conditions: JNK2, 10 μM
Procedure: as §1

MLK1 = MLK1 (Homo sapiens, UniProt P80192); conditions: MLK1, 10 μM
Procedure: as §1

p38b MAPK = p38b MAPK (Homo sapiens, UniProt Q15759)
Procedure: as §1

ERK2 = ERK2 (Homo sapiens, UniProt P28482); conditions: ERK2, 10 μM
Procedure: as §1

PKA = PKA (Homo sapiens, UniProt P17612)
Procedure: as §1

EPH-B3 = EPH-B3 (Homo sapiens, UniProt P54753); conditions: EPH-B3, 10 μM
Procedure: as §1

With CN(C)c1cc[n+](CCCCCCCCCCCC[n+]2ccc(N(C)C)cc2)cc1 [ICL-CCIC-0019] the remaining activity at 10 µM (TBK1) was 108%, the remaining activity at 10 µM (MSK1) was 96% and the remaining activity at 10 µM (Aurora B) was 102%. It also gave a remaining activity at 10 µM (EPH-A2) of 93%, a remaining activity at 10 µM (p38a MAPK) of 108% and a remaining activity at 10 µM (PRK2) of 94%. For the same compound, the remaining activity at 10 µM (NEK6) was 86%, the remaining activity at 10 µM (MST2) was 89% and the remaining activity at 10 µM (IRR) was 92%. For the same compound, the remaining activity at 10 µM (ROCK 2) was 97%, the remaining activity at 10 µM (MKK6) was 102% and the remaining activity at 10 µM (PHK) was 94%. The inhibition at 10 µM (RSK1) was 22 ± 6%, the remaining activity at 10 µM (RSK1) was 78% and the inhibition at 10 µM (HER4) was 21 ± 7%. It also gave a remaining activity at 10 µM (HER4) of 79%, a remaining activity at 10 µM (MAPKAP-K2) of 89% and a remaining activity at 10 µM (TIE2) of 89%. The remaining activity at 10 µM (TTBK1) was 97%, the inhibition at 10 µM (ERK8) was 31 ± 4% and the remaining activity at 10 µM (ERK8) was 69%. It also gave a remaining activity at 10 µM (FGF-R1) of 92%, a remaining activity at 10 µM (MKK2) of 95% and a remaining activity at 10 µM (DYRK3) of 106%. For the same compound, the remaining activity at 10 µM (IRAK1) was 89%, the remaining activity at 10 µM (CLK2) was 101% and the remaining activity at 10 µM (CHK1) was 97%. The remaining activity at 10 µM (MPSK1) was 105%, the remaining activity at 10 µM (BRSK2) was 94% and the remaining activity at 10 µM (TrkA) was 84%. For the same compound, the remaining activity at 10 µM (JNK1) was 98%, the remaining activity at 10 µM (SYK) was 92% and the remaining activity at 10 µM (JNK2) was 100%. It also gave a remaining activity at 10 µM (MLK1) of 91%, a remaining activity at 10 µM (p38b MAPK) of 107% and a remaining activity at 10 µM (ERK2) of 103%. For the same compound, the remaining activity at 10 µM (PKA) was 106% and the remaining activity at 10 µM (EPH-B3) was 107%.
